Test results published in publication PMC8775935, “Chebulinic Acid Suppresses Adipogenesis in 3T3-L1 Preadipocytes by Inhibiting PPP1CB Activity” (International Journal of Molecular Sciences, 2022).
pIC50: −log10 of the molar value.

Target: protein phosphatase-1 catalytic subunit beta (PPP1CB) (Homo sapiens, UniProt P62140)
Experiment: DiFMUP fluorescence phosphatase assay, dose-response
Assay type: biochemical

Chain of protein phosphatase-1 catalytic subunit beta (PPP1CB) (P62140 1-266): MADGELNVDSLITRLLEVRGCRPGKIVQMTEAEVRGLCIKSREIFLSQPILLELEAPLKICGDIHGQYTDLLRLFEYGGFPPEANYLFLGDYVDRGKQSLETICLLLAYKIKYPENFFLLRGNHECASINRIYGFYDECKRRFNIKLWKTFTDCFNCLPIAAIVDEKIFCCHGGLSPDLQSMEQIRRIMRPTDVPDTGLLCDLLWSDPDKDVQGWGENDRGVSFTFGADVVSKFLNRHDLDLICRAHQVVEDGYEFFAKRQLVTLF

## O=C(O)C[C@@H]1C(=O)O[C@H]2[C@H](OC(=O)c3cc(O)c(O)c(O)c3)[C@@H](OC(=O)c3cc(O)c(O)c4c3[C@H]1[C@H](O)C(=O)O4)[C@H](OC(=O)c1cc(O)c(O)c(O)c1)O[C@@H]2COC(=O)c1cc(O)c(O)c(O)c1 [compound 147, chebulinic acid]
  pIC50: 6.52
